Assay results: patent US20160250177A1, “MODIFIED DOCETAXEL LIPOSOME FORMULATIONS AND USES THEREOF” (MALLINCKRODT LLC, priority 2015, published 2016)
Like-named read-outs stand apart in the source and are kept apart here.

How the values were obtained:
[1] = human, in vivo; for AUC/Dose / CL / Cmax/Dose / Vss: iv
clinical = conditions: human, in vivo

## CC(=O)O[C@@]12CO[C@@H]1C[C@H](O)[C@@]1(C)C(=O)[C@H](O)C3=C(C)[C@@H](OC(=O)[C@H](OC(=O)CN4CCN(C)CC4)[C@@H](NC(=O)OC(C)(C)C)c4ccccc4)C[C@@](O)([C@@H](OC(=O)c4ccccc4)[C@H]21)C3(C)C [TD-1]
[1]
  CL (mean): 0.025 L/h/m^2
  Cmax and AUC with respect to dose: remained linear with respect to dose
  Vss (mean): 1.422 L/m^2
  dose proportionality for Cmax and AUCinf: demonstrate dose proportionality
[1]; 12 mg/m2
  AUC/Dose: 38106 m^2 · ng · h/ml/mg
  CL: 0.0283 l/h/m^2
  Cmax/Dose: 539.6 m^2 · ng/ml/mg
  Vss: 1.46 l/m^2
[1]; 48 mg/m2
  AUC/Dose: 55469 m^2 · ng · h/ml/mg
  CL: 0.0186 l/h/m^2
  Cmax/Dose: 640.3 m^2 · ng/ml/mg
  Vss: 1.40 l/m^2
[1]; 120 mg/m2
  AUC/Dose: 52326 m^2 · ng · h/ml/mg
  CL: 0.0202 l/h/m^2
  Cmax/Dose: 573.6 m^2 · ng/ml/mg
  Vss: 0.090 l/m^2
[1]; 225 mg/m2
  AUC/Dose: 58571 m^2 · ng · h/ml/mg
  CL: 0.0184 l/h/m^2
  Cmax/Dose: 662.2 m^2 · ng/ml/mg
  Vss: 1.08 l/m^2
[1]; 320 mg/m2
  AUC/Dose: 405478 m^2 · ng · h/ml/mg
  CL: 0.0260 l/h/m^2
  Cmax/Dose: 640.6 m^2 · ng/ml/mg
  Vss: 1.58 l/m^2
clinical; average t1/2 for TD-1
  half-life: ~51 h
clinical; iv, 3 mg/m2
  AUC(0-inf): 103 µg·h/mL
  Cmax: 1.52 µg/mL
clinical; iv, 3 mg/m2, t1/2
  half-life: 48.8 h
clinical; iv, 6 mg/m2
  AUC(0-inf): 252 µg·h/mL
  Cmax: 3.15 µg/mL
clinical; iv, 6 mg/m2, t1/2
  half-life: 57.6 h
clinical; iv, 12 mg/m2
  AUC(0-inf): 457 µg·h/mL
  Cmax: 6.48 µg/mL
clinical; iv, 12 mg/m2, t1/2
  half-life: 44 h
clinical; iv, 24 mg/m2
  AUC(0-inf): 955 µg·h/mL
  Cmax: 13.7 µg/mL
clinical; iv, 24 mg/m2, t1/2
  half-life: 43.8 h
clinical; iv, 48 mg/m2
  AUC(0-inf): 2660 µg·h/mL
  Cmax: 30.7 µg/mL
clinical; iv, 48 mg/m2, t1/2
  half-life: 59.3 h
clinical; iv, 80 mg/m2
  AUC(0-inf): 2390 µg·h/mL
  Cmax: 43.4 µg/mL
clinical; iv, 80 mg/m2, t1/2
  half-life: 26.7 h
clinical; iv, 120 mg/m2
  AUC(0-inf): 6280 µg·h/mL
  Cmax: 68.8 µg/mL
clinical; iv, 120 mg/m2, t1/2
  half-life: 48.3 h
clinical; iv, 160 mg/m2
  AUC(0-inf): 9440 µg·h/mL
  Cmax: 98.5 µg/mL
clinical; iv, 160 mg/m2, t1/2
  half-life: 66.1 h
clinical; iv, 190 mg/m2
  AUC(0-inf): 9810 µg·h/mL
  Cmax: 143 µg/mL
clinical; iv, 190 mg/m2, t1/2
  half-life: 53 h
clinical; iv, 225 mg/m2
  AUC(0-inf): 13200 µg·h/mL
  Cmax: 149 µg/mL
clinical; iv, 225 mg/m2, t1/2
  half-life: 54.5 h
clinical; iv, 270 mg/m2
  AUC(0-inf): 8370 µg·h/mL
  Cmax: 150 µg/mL
clinical; iv, 270 mg/m2, t1/2
  half-life: 35.6 h
clinical; iv, 320 mg/m2
  AUC(0-inf): 13000 µg·h/mL
  Cmax: 205 µg/mL
clinical; iv, 320 mg/m2, t1/2
  half-life: 43.7 h
clinical; iv, 380 mg/m2
  AUC(0-inf): 34100 µg·h/mL
  Cmax: 310 µg/mL
clinical; iv, 380 mg/m2, t1/2
  half-life: 84.4 h
clinical; t1/2 (mean)
  half-life: ~50 h
